Here are results for one compound from patent US20190307732A1, “METHODS OF TREATING MITOCHONDRIAL AND METABOLIC DISORDERS” (Abraxis Bioscience, LLC, priority 2016, published 2019).

The subject of this assay is S6 phosphorylation. Put plainly: Inhibition of S6 phosphorylation (pS6) in IMR90 fibroblast lysates. It counts as cell-based. The note with it: Homo sapiens, IMR-90; IMR90 fibroblasts; dose of 1 ng/mL; FIG. 2. As to the method: IMR90 fibroblasts were administered varying doses of nab-sirolimus or rapamycin. Cell lysates were used to determine inhibition of S6 phosphorylation. Presence of vimentin. S6, and phosphorylated S6 (pS6) was measured.

Turning to `CO[C@H]1C[C@@H]2CC[C@@H](C)[C@@](O)(O2)C(=O)C(=O)N2CCCC[C@H]2C(=O)O[C@H]([C@H](C)C[C@@H]2CC[C@@H](O)[C@H](OC)C2)CC(=O)[C@H](C)/C=C(\C)[C@@H](O)[C@@H](OC)C(=O)[C@H](C)C[C@H](C)/C=C/C=C/C=C/1C` [rapamycin], the inhibition – broadly, the drop in the measured response relative to a control, in per cent – at 0.001 µg/mL turned out to be 100%.
